Results from PubChem BioAssay (NCI).
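Compound exposure: 48 hours, 5 concentrations, 96-well plates. GI50: concentration for 50% inhibition of growth. Definition used: TGI = concentration required for complete inhibition of growth.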

Columns and labels:
Test in all cases: NCI-60 cell line screen, 48 h
[1] = system: CAKI-1 renal
[2] = system: COLO 205 colon
[3] = system: HCC-2998 colon
[4] = system: HOP-62 NSCLC
[5] = system: LOX IMVI melanoma
[6] = system: SF-295 CNS
[7] = system: SK-MEL-2 melanoma
[8] = system: SK-MEL-5 melanoma
[9] = system: SK-OV-3 ovarian
[10] = system: SN12C renal

| Compound | GI50 [1] [µM] | TGI [1] [µM] | GI50 [2] [µM] | TGI [2] [µM] | GI50 [3] [µM] | TGI [3] [µM] | GI50 [4] [µM] | TGI [4] [µM] | GI50 [5] [µM] | TGI [5] [µM] | GI50 [6] [µM] | TGI [6] [µM] | GI50 [7] [µM] | TGI [7] [µM] | GI50 [8] [µM] | TGI [8] [µM] | GI50 [9] [µM] | TGI [9] [µM] | GI50 [10] [µM] | TGI [10] [µM] |
| --- | --- | --- | --- | --- | --- | --- | --- | --- | --- | --- | --- | --- | --- | --- | --- | --- | --- | --- | --- | --- |
| CCN(c1cc(C#CCN2CCOCC2)cc(C(=O)NCc2c(C)cc(C)[nH]c2=O)c1C)C1CCC(N(C)CCOC)CC1 (stereo unspecified) | > 100 | > 100 | > 100 | > 100 | > 100 | > 100 | > 100 | > 100 | > 100 | > 100 | > 100 | > 100 | > 100 | > 100 | > 100 | > 100 | > 100 | > 100 | > 100 | > 100 |
| N#CCC(=O)N1CCCCCCC1 | – | > 100 | – | 28.9 | – | > 100 | – | > 100 | – | > 100 | – | > 100 | – | > 100 | – | > 100 | – | > 100 | – | > 100 |
| O=c1oc2ccccc2c(O)c1C(C/C(CCN1CCCC1)=N\Nc1ccccc1)c1ccccc1 (stereo unspecified) | – | > 100 | – | – | – | > 100 | – | > 100 | – | > 100 | – | > 100 | – | > 100 | – | > 100 | – | > 100 | – | > 100 |
| Cc1coc2c1C(OC(=O)C(C)C)C1(C)C(C)CCC(O)C1C2=O (stereo unspecified) | – | > 100 | – | > 100 | – | > 100 | – | > 100 | – | > 100 | – | > 100 | – | > 100 | – | > 100 | – | > 100 | – | > 100 |
| CS(=O)(=O)N(c1cc(-c2ccc3ncnc(Nc4cccc(Cl)c4)c3c2)cnc1Cl)S(C)(=O)=O | 0.281 | 2.08 | 0.421 | 2.04 | 0.69 | 2.53 | 0.443 | 12.8 | 0.427 | 2.26 | 0.542 | 3.17 | 0.469 | 2.09 | 0.306 | 1.41 | 0.316 | 1.81 | 0.386 | 17 |
| NNC(=O)C(=O)N/N=C(\CCC(=O)Nc1ccc(Cl)cc1)Cc1nc2ccccc2s1 | – | > 100 | – | > 100 | – | > 100 | – | > 100 | – | 67.5 | – | > 100 | – | > 100 | – | 43.6 | – | > 100 | – | > 100 |
| CC(=O)c1cc(O)c2ccccc2c1O | 15.5 | 30.2 | 19 | 34.4 | 19.9 | 37.1 | 17.5 | 41.4 | 14.8 | 39.3 | 18.5 | 38.8 | 20.4 | 38.7 | 16.3 | 30.2 | > 100 | > 100 | 17.5 | 36.3 |
| O=NN(CCCl)C(=O)NC1CCC(CC2CCC(NC(=O)N(CCCl)N=O)CC2)CC1 (stereo unspecified) | – | > 100 | – | > 88.1 | – | > 100 | – | 82.3 | – | 26.4 | – | > 79.2 | – | > 100 | – | > 100 | – | > 86.4 | – | > 73.5 |
| Cn1cc(C2=C(N3CCOCC3)C(=O)NC2=O)c2ccccc21 | > 25 | > 25 | > 25 | > 25 | > 25 | > 25 | > 25 | > 25 | > 25 | > 25 | > 25 | > 25 | > 25 | > 25 | > 25 | > 25 | > 25 | > 25 | > 25 | > 25 |
| O=C(O)Cn1cc([N+](=O)[O-])c(=O)c2ccccc21 | – | > 100 | – | 33.7 | – | > 100 | – | > 100 | – | – | – | > 100 | – | > 100 | – | > 100 | – | > 100 | – | > 100 |
| O=C(CCc1ccc(O)cc1)N/N=C/c1cc(Br)ccc1O | 1.95 | 8.99 | 14 | > 100 | 7.12 | 96.9 | 6.76 | 57.6 | 2.07 | 16.8 | 3.25 | > 100 | 5.28 | 38.3 | 3.4 | 18.1 | 6.35 | > 100 | 4.76 | 73.6 |
| O=C(O)C(Oc1nc(=S)[nH]c(=S)[nH]1)(c1ccc(Cl)cc1)c1ccc(Cl)cc1 | – | > 100 | – | > 100 | – | > 100 | – | > 100 | – | > 100 | – | > 100 | – | > 100 | – | > 100 | – | > 100 | – | > 100 |
| COC(=O)c1nn(C(=N)c2ccc(Cl)cc2)c2c1CCC2 | – | > 100 | – | > 100 | – | > 100 | – | > 100 | – | > 100 | – | > 100 | – | > 100 | – | > 100 | – | > 100 | – | > 100 |
| CN1C/C(=C\C=C\c2ccccc2)C(=O)/C(=C/C=C/c2ccccc2)C1 | – | > 100 | – | > 100 | – | > 100 | – | > 100 | – | > 100 | – | > 100 | – | > 100 | – | > 100 | – | > 100 | – | > 100 |
| Cc1ccc(Sc2cc3c(oc2=O)-c2ccccc2OC3O)cc1 (stereo unspecified) | 32 | 78.1 | 15 | 36.5 | 20.3 | 36.6 | 22.5 | 44.7 | 18 | 40 | 30.2 | 67.5 | 22.1 | 47.7 | 17.1 | 32.9 | – | – | 29.4 | 73.3 |
